Some test systems named below: SK-OV-3 ovarian; SW-620 colon; MOLT-4 leukemia; UACC-62 melanoma; KM12 colon; SNB-75 CNS; OVCAR-3 ovarian; DU-145 prostate; OVCAR-4 ovarian; EKVX NSCLC.
What all share (assay): NCI anticancer screen, dose series, 48 h

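Compound exposure: 48 hours, 5 concentrations, 96-well plates. Here, GI50 denotes the concentration required for 50% inhibition of growth. TGI denotes the concentration required for complete inhibition of growth.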

As to `S=C1NC2(CCCCCC2)NN1c1ccccc1`, the TGI with SK-OV-3 ovarian, in the assay on SW-620 colon, in the assay on MOLT-4 leukemia, with UACC-62 melanoma, in the assay with KM12 colon and in the assay with SNB-75 CNS was above 100 µM throughout. Besides, the TGI with OVCAR-3 ovarian, in the assay on DU-145 prostate, in the assay with OVCAR-4 ovarian and in the assay on EKVX NSCLC was above 100 µM throughout.

With `CCCCCCCCCCCCOC1C(C(COC2OC(C3COC(C)(C)O3)C3OC(C)(C)OC23)NC(=O)Nc2ccc(C(=O)O)cc2)OC2OC(C)(C)OC21` (stereo not given), the GI50 is 11700 nM in the assay with SK-OV-3 ovarian; 3260 nM in the assay with SW-620 colon; 3290 nM with MOLT-4 leukemia; 1800 nM in the assay with UACC-62 melanoma; 2220 nM in the assay with KM12 colon; 2470 nM with SNB-75 CNS. The GI50 in the assay on OVCAR-3 ovarian was 2480 nM; in the assay with DU-145 prostate it was 3070 nM; in the assay on OVCAR-4 ovarian, 3560 nM; in the assay on EKVX NSCLC it was 2690 nM. Moreover, the TGI is 24 µM in the assay on SK-OV-3 ovarian; 11 µM with SW-620 colon; 8.34 µM with MOLT-4 leukemia; 3.56 µM in the assay with UACC-62 melanoma; 4.36 µM in the assay with KM12 colon; 10.8 µM in the assay with SNB-75 CNS. The TGI in the assay on OVCAR-3 ovarian worked out at 7.49 µM; in the assay on DU-145 prostate, 9.79 µM; in the assay on OVCAR-4 ovarian, 15.3 µM; in the assay on EKVX NSCLC it was 10.8 µM.

As for `Cn1nc(N)c2cc([C@@H]3Nc4ccc5[nH]ncc5c4[C@H]4C5CCC(C5)[C@@H]34)ccc21` (stereo not given in full), the GI50 in the assay on SK-OV-3 ovarian is 1160 nM; in the assay on SW-620 colon, 391 nM; with MOLT-4 leukemia, 556 nM; with UACC-62 melanoma, 425 nM; in the assay with KM12 colon, 486 nM; with SNB-75 CNS, 152 nM. Further, the GI50 in the assay on OVCAR-3 ovarian was 337 nM; with DU-145 prostate, 438 nM; with OVCAR-4 ovarian, 2670 nM; with EKVX NSCLC, 732 nM. The TGI is 69.1 µM in the assay on SK-OV-3 ovarian; 28 µM with SW-620 colon; above 51 µM in the assay on MOLT-4 leukemia; 17.7 µM with UACC-62 melanoma; 15.2 µM with KM12 colon; 3.27 µM in the assay with SNB-75 CNS. Also, the TGI with OVCAR-3 ovarian was 4.07 µM; in the assay with DU-145 prostate, 37.7 µM; in the assay with OVCAR-4 ovarian, above 95 µM; in the assay with EKVX NSCLC, 67 µM.

For the compound `[Cl][Hg][c]1cc(Br)cc(Br)c1`, the GI50 in the assay with SK-OV-3 ovarian was 4070 nM; with SW-620 colon, 1740 nM; in the assay with MOLT-4 leukemia it was 1770 nM; in the assay with UACC-62 melanoma it was 1620 nM; in the assay on KM12 colon, 2780 nM; with SNB-75 CNS it was 1240 nM. In addition, the GI50 is 1190 nM with OVCAR-3 ovarian, 2770 nM with DU-145 prostate, 2310 nM in the assay on OVCAR-4 ovarian and 2210 nM in the assay with EKVX NSCLC. In addition, the TGI in the assay with SK-OV-3 ovarian was found to be 13 µM; in the assay on SW-620 colon, 3.52 µM; with MOLT-4 leukemia, 5.41 µM; in the assay on UACC-62 melanoma it was 3.42 µM; in the assay with KM12 colon, 11.8 µM; in the assay on SNB-75 CNS it was 3.43 µM. Also, the TGI was 2.46 µM in the assay on OVCAR-3 ovarian, 10.6 µM in the assay on DU-145 prostate, 7.69 µM in the assay with OVCAR-4 ovarian and 4.78 µM in the assay on EKVX NSCLC.

Turning to `CCC(C)n1ncn(-c2ccc(N3CCN(c4ccc(OCC5COC(Cn6cncn6)(c6ccc(Cl)cc6Cl)O5)cc4)CC3)cc2)c1=O` (stereo not given), the GI50 was 24200 nM in the assay on SK-OV-3 ovarian; above 100000 nM in the assay with SW-620 colon; above 100000 nM in the assay on MOLT-4 leukemia; 17600 nM in the assay on UACC-62 melanoma; 5690 nM with KM12 colon; 11400 nM in the assay with SNB-75 CNS. The GI50 with OVCAR-3 ovarian is 40900 nM; in the assay with DU-145 prostate, above 100000 nM; with OVCAR-4 ovarian, 35200 nM; in the assay with EKVX NSCLC, 1240 nM. Besides, the TGI was above 100 µM in the assay with SK-OV-3 ovarian; above 100 µM with SW-620 colon; above 100 µM with MOLT-4 leukemia; above 100 µM with UACC-62 melanoma; above 100 µM in the assay with KM12 colon; 71.2 µM in the assay on SNB-75 CNS. The TGI in the assay on OVCAR-3 ovarian, in the assay on DU-145 prostate, in the assay with OVCAR-4 ovarian and in the assay on EKVX NSCLC was above 100 µM throughout.

As to `O=C(Nc1nc2ccc(C(F)(F)F)cc2s1)c1cc(Cl)ccc1O`, the GI50 with SK-OV-3 ovarian is 497 nM; in the assay on SW-620 colon it was 878 nM; with MOLT-4 leukemia, 684 nM; in the assay with UACC-62 melanoma it was 337 nM; in the assay with KM12 colon it was 611 nM; in the assay with SNB-75 CNS, 1590 nM. In addition, the GI50 in the assay with OVCAR-3 ovarian was 422 nM; with DU-145 prostate, 1590 nM; with OVCAR-4 ovarian, 1870 nM; in the assay with EKVX NSCLC, 370 nM. The TGI in the assay on SK-OV-3 ovarian was 4.77 µM; in the assay on SW-620 colon, 36.3 µM; in the assay with MOLT-4 leukemia, 13.4 µM; in the assay on UACC-62 melanoma, 3.52 µM; with KM12 colon, 22 µM; in the assay with SNB-75 CNS it was 7.24 µM. For the same compound, the TGI is 56 µM in the assay on OVCAR-3 ovarian, above 100 µM in the assay with DU-145 prostate, above 100 µM in the assay on OVCAR-4 ovarian and 39 µM in the assay on EKVX NSCLC.

As for `COc1cc(C2CC(c3cccc(Br)c3)=NN2C(C)=O)cc(OC)c1OC` (stereo not given), the GI50 with SK-OV-3 ovarian was 379 nM; in the assay with SW-620 colon, 309 nM; in the assay with MOLT-4 leukemia, 368 nM; in the assay on UACC-62 melanoma it was 309 nM; in the assay on KM12 colon it was 247 nM; in the assay on SNB-75 CNS it was 368 nM. Moreover, the GI50 in the assay with OVCAR-3 ovarian is 158 nM; in the assay with DU-145 prostate, 371 nM; in the assay on OVCAR-4 ovarian, 624 nM; in the assay on EKVX NSCLC it was 1480 nM. Besides, the TGI in the assay with SK-OV-3 ovarian was 47.2 µM; in the assay on SW-620 colon, above 100 µM; with MOLT-4 leukemia, 5.05 µM; in the assay with UACC-62 melanoma, 29.3 µM; in the assay on KM12 colon, 18 µM; in the assay on SNB-75 CNS, above 100 µM. In addition, the TGI with OVCAR-3 ovarian is 0.61 µM; with DU-145 prostate it was 6.61 µM; in the assay on OVCAR-4 ovarian it was above 100 µM; with EKVX NSCLC, above 100 µM.

Turning to `CNC(=O)N(C)N=NCCCl`, the TGI in the assay with SK-OV-3 ovarian, in the assay with SW-620 colon, in the assay on MOLT-4 leukemia, in the assay on UACC-62 melanoma, with KM12 colon and in the assay with SNB-75 CNS was above 100 µM in each case. Moreover, the TGI in the assay on OVCAR-3 ovarian, in the assay on DU-145 prostate, in the assay on OVCAR-4 ovarian and in the assay on EKVX NSCLC was above 100 µM each time.

For the origin of these results see PubChem BioAssay (NCI).
